Where two headings read alike, the source gives them in different places.
How the values were obtained:
HIV-1 RT mutant K101P = experiment: single round infection assay, K101P; type: cell-based
Experimental: (§1) The human osteosarcoma cell line, HOS, was obtained from Dr. Richard Schwartz (Michigan State University, East Lansing, MI) and grown in Dulbecco’s modified Eagle’s medium (Invitrogen, Carlsbad, CA) supplemented with 5 % (v/v) fetal bovine serum, 5 % newborn calf serum, and penicillin (50 units/ml) plus streptomycin (50 µg/ml; Quality Biological, Gaithersburg, MD). Virion production and single-round infectivity assays were used to determine antiviral activity (IC50 values) of the compounds as previously described.
(§2) pNLNgoMIVR-ΔEnv.LUC has been described previously. The RT open reading frame was removed from pNLNgoMIVR-ΔEnv.LUC (digestion with SpeI and SalI) and inserted between the SpeI and SalI sites of pBluescript II KS+. Using that construct as the wild-type template, we prepared the following HIV-1 RT mutants using the QuikChange II XL (Stratagene, La Jolla, CA) site-directed mutagenesis protocol kit: L100I, K103N, Y181C, Y188L, H221Y, K103N/Y181C, G190A, G190S, M230L, P236L, L100I/K103N, K103N/P225H, V106A/G190A/F227L, V106A, L234I, V106A/F227L, V106A/L234I, V106A/F227L/L234I, E40K, D67E, K101E, V111A, E138K, M184I, M184V, K101E/M184I, K101E/M184V, E138K/M184I, E138K/M184V, K101P, Y181I, and K101P/V179I. The following sense oligonucleotides were used with matching cognate antisense oligonucleotides (not shown) (Integrated DNA Technologies, Coralville, IA) in the mutagenesis: L100I, 5′-[…]-3′; L100I 2-103, 5′-[…]-3′; K103N, 5′-[…]-3′; Y181C, 5′-[…]-3′; Y188L, 5′-[…]-3′; H221Y, 5′-[…]-3′; G190A, 5′-[…]-3′; G190S, 5′-[…]-3′; P225H, 5′-[…]-3′; F227, 5′-[…]-3′; M230L, 5′-[…]-3′; P236L, 5′-[…]-3′; V106A, 5′-[…]-3′; L234I, 5′-[…]-3′; E40K, 5′-[…]-3′; D67E, 5′-[…]-3′; K101E, 5′-[…]-3′; V111A, 5′-[…]-3′; E138K, 5′-[…]-3′; M184I, 5′-[…]-3′; M184V, 5′-[…]-3′; K101P, 5′-[…]-3′; Y181I, 5′-[…]-3′; K101P/V179I, 5′-[…]-3′. The double mutants K103N/Y181C, K103N/P225H, and L100I/K103N were made using the previously generated K103N mutant and the appropriate oligonucleotides to add the second mutation, Y181C, P225, and L100I respectively. The double mutants V106A/F227L and V106A/L234I were prepared using the previously generated V106A mutant and the appropriate oligonucleotides to add the second mutation, F227L and L234I, respectively. The double mutants K101E/M184I and K101E/M184V were constructed using the previously generated K101E mutant and the appropriate oligonucleotides to add the second mutation, M184I and M184V, respectively. The double mutants E138K/M184I and E138K/M184V were constructed using the previously generated E138K mutant and the appropriate oligonucleotides for the second mutation, M184I and M184V, respectively. The triple mutant V106A/F227L/L234I was made using the previously generated V106A/F227L double mutant and the appropriate oligonucleotides for the third mutation, L234I. The triple mutant V106A/G190A/F227L was constructed in a series of steps using the previously generated V106A mutant and the appropriate oligonucleotides for the second mutation, G190A, to generate the double mutant V106A/G190A, and then the triple mutant was made using double mutant V106A/G190A and oligonucleotides for the third mutation, F227L. The DNA sequence of each construct was verified by DNA sequence determination. The sequences encoding the mutant RTs were then subcloned into pNLNgoMIVR-ΔEnv.LUC (between the KpnI and SalI sites) to produce the mutant HIV-1 constructs. These DNA sequences were also checked independently by DNA sequence determination.
(§3) 10.1186/s12977-016-0244-2 The IC50 values (nM) of RPV and the RPV analogs were determined against the NNRTI resistant mutants were measured by using a single round infection assay, n = 4. The concentrations (nM) are measured by reductions in luciferase reporter activity followed by the standard deviations. […]

HIV-1 RT mutant D67E = experiment: single round infection assay, D67E; type: cell-based; settings: D67E vs WT
Experimental: as §1, §2, §3

HIV-1 RT mutant G190S = experiment: single round infection assay, G190S; type: cell-based; settings: Human immunodeficiency virus 1
Experimental: as §1, §2, §3

WT HIV-1 [1] = settings: previous study; cited from earlier work
[2] = system: HIV-1 RT mutant V106A/G190A/F227L; experiment: single round infection assay, V106A/G190A/F227L; type: cell-based
Experimental: as §1, §2, §3

HIV-1 RT mutant E138K = experiment: single round infection assay, E138K; type: cell-based; settings: E138K vs WT
Experimental: as §1, §2, §3

[3] = system: HIV-1 RT mutant K101P/V179I; experiment: single round infection assay, K101P/V179I; type: cell-based
Experimental: as §1, §2, §3

HIV-1 RT mutant G190A = experiment: single round infection assay, G190A; type: cell-based; settings: Human immunodeficiency virus 1
Experimental: as §1, §2, §3

HIV-1 RT mutant Y181C = system: HIV-1 RT mutant Y181C; set-up: method as in PMID 23217210; settings: previous study; cited from earlier work
HIV-1 RT mutant P236L = experiment: single round infection assay, P236L; type: cell-based
Experimental: as §1, §2, §3

[4] = system: HIV-1 RT mutant V106A/F227L/L234I; experiment: single round infection assay, V106A/F227L/L234I; type: cell-based; settings: for IC50: ± SD, n=4
Experimental: as §1, §2, §3

[5] = system: HIV-1 RT mutant E138K/M184I; experiment: single round infection assay, E138K/M184I; type: cell-based; settings: E138K/M184I vs WT
Experimental: as §1, §2, §3

HIV-1 RT mutant K103N = system: HIV-1 RT mutant K103N; set-up: method as in PMID 23217210; settings: previous study; cited from earlier work
[6] = system: HIV-1 RT mutant V106A/F227L; experiment: single round infection assay, V106A/F227L; type: cell-based; settings: V106A/F227L vs WT
Experimental: as §1, §2, §3

HIV-1 RT mutant Y181I = experiment: single round infection assay, Y181I; type: cell-based
Experimental: as §1, §2, §3

[7] = system: HIV-1 RT mutant K103N/P225H; experiment: single round infection assay, K103N/P225H; type: cell-based; settings: Human immunodeficiency virus 1
Experimental: as §1, §2, §3

HIV-1 RT mutant H221Y = system: HIV-1 RT mutant H221Y; set-up: method as in PMID 23217210; settings: previous study; cited from earlier work
HIV-1 RT mutant L100I = system: HIV-1 RT mutant L100I; set-up: method as in PMID 23217210; settings: previous study; cited from earlier work
WT HIV-1 [8] = experiment: single round infection luciferase assay, WT HIV-1; type: cell-based; settings: Human immunodeficiency virus 1
Experimental: as §1, §2, §3

[9] = system: HIV-1 RT mutant K103N/Y181C; set-up: method as in PMID 23217210; settings: previous study; cited from earlier work
HIV-1 RT mutant M230L = experiment: single round infection assay, M230L; type: cell-based; settings: M230L vs WT
Experimental: as §1, §2, §3

Structure (SMILES): Cc1cc(/C=C/C#N)cc(C)c1Nc1nc(Nc2ccc(C#N)cc2)nc2[nH]cnc12 [compound 11]
- IC50 (HIV-1 RT mutant K101P; Human immunodeficiency virus 1): 2.4 nM
- fold-change of IC50 of the mutant relative to WT (HIV-1 RT mutant K101P; K101P vs WT): 4
- fold-change of IC50 of the mutant relative to WT (HIV-1 RT mutant D67E): < 2
- IC50 (HIV-1 RT mutant G190S): 0.2 ± 0.07 nM
- IC50 (WT HIV-1 [1]): < 7 nM
- IC50 ([2]; Human immunodeficiency virus 1): 0.98 ± 0.17 nM
- fold-change of IC50 of the mutant relative to WT ([2]; V106A/G190A/F227L vs WT): < 2
- fold-change of IC50 of the mutant relative to WT (HIV-1 RT mutant E138K): < 2
- IC50 ([3]; Human immunodeficiency virus 1): 2.5 nM
- fold-change of IC50 of the mutant relative to WT ([3]; K101P/V179I vs WT): 4
- IC50 (HIV-1 RT mutant G190A): 0.45 ± 0.01 nM
- IC50 (HIV-1 RT mutant Y181C): < 7 nM
- IC50 (HIV-1 RT mutant P236L; Human immunodeficiency virus 1): 0.87 ± 0.2 nM
- fold-change of IC50 of the mutant relative to WT (HIV-1 RT mutant P236L; P236L vs WT): < 2
- IC50 ([4]; Human immunodeficiency virus 1, V106A/F227L/L234I (selected by DOR)): < 5 nM
- IC50 ([4]; V106A/F227L/L234I (selected by DOR)): 3.4 ± 1.1 nM
- fold-change of IC50 of the mutant relative to WT ([4]; V106A/F227L/L234I vs WT): 6
- fold-change of IC50 of the mutant relative to WT [5]: < 2
- IC50 (HIV-1 RT mutant K103N): < 7 nM
- fold-change of IC50 of the mutant relative to WT [6]: < 2
- IC50 (HIV-1 RT mutant Y181I; Human immunodeficiency virus 1): 2.4 nM
- fold-change of IC50 of the mutant relative to WT (HIV-1 RT mutant Y181I; Y181I vs WT): 4
- IC50 [7]: 0.22 ± 0.06 nM
- IC50 (HIV-1 RT mutant H221Y): < 7 nM
- IC50 (HIV-1 RT mutant L100I): < 7 nM
- IC50 (WT HIV-1 [8]): 0.56 ± 0.08 nM
- IC50 [9]: < 5 nM
- fold-change of IC50 of the mutant relative to WT (HIV-1 RT mutant M230L): 3
